The text below walks through data of ChEMBL document CHEMBL5143752, “Biological Effects of Modifications of the Englerin A Glycolate” (ACS Med Chem Lett, 2022).

The source made the active and inactive calls. The calls are words filed in the database; no cut-off is given here.

In one data set the test system is RXF 393. Briefly: Growth inhibition of human RXF 393 cells assessed as inhibition of cell growth. The data set is classed as functional.
The next data set deals with UO-31. Briefly: Growth inhibition of human UO-31 cells assessed as cell growth inhibition. It is filed as functional.
The next data set has as its system A498. Briefly: Growth inhibition of human A498 cells assessed as cell growth inhibition. It is filed as functional.
Data set [1] is described as follows: Plasma concentration in mouse at 100 mg/kg, po by LC-MS/MS analysis. It is filed as ADME, organism-based. The note with it: in vivo.
A short description of data set [2]: Acute toxicity in mouse assessed as maximum tolerated dose measured for 24 hrs. The settings on record: in vivo.
In data set [3] the target is T1, Short transient receptor potential channel 4 (Homo sapiens) (UniProt Q9UBN4).
T1 sequence (whole entry): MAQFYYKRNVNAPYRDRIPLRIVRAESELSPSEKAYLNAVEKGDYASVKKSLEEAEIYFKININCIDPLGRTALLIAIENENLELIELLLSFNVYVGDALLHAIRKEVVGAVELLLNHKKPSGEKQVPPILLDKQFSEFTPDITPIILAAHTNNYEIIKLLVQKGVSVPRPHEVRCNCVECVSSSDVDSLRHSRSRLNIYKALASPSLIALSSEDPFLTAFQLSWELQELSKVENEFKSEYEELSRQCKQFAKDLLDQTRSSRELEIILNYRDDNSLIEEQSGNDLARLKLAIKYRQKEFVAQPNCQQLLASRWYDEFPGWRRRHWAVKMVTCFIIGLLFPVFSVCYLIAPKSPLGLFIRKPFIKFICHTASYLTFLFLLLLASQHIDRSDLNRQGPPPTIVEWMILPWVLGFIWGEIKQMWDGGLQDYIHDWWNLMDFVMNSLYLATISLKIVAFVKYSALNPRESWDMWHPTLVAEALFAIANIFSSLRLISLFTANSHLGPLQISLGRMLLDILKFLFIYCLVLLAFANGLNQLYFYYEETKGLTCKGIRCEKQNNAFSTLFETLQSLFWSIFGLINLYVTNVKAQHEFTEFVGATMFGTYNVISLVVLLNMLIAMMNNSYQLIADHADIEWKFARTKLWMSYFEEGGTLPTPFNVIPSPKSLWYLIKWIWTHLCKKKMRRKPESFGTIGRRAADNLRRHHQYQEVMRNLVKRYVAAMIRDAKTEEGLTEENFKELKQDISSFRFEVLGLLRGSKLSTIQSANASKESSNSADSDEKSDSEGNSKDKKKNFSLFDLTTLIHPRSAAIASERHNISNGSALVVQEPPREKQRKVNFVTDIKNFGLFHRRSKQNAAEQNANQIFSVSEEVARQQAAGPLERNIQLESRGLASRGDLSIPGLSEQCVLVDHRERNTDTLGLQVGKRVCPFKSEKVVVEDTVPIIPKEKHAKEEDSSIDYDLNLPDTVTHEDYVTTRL
Briefly: Agonist activity at human TRPC4 stably expressed in T-REx-293 cells assessed as increase in calcium flux at 10 uM by Fura-2AM dye based fluorescence plate reader assay relative to control. The data set is classed as cell-based. In general terms: Calcium assays in cells follow changes in intracellular calcium, usually with a dye or a luminescent sensor.

The target of data set [4] is T2, Short transient receptor potential channel 5 (Homo sapiens, UniProt Q9UL62).
T2 sequence (Q9UL62 whole entry): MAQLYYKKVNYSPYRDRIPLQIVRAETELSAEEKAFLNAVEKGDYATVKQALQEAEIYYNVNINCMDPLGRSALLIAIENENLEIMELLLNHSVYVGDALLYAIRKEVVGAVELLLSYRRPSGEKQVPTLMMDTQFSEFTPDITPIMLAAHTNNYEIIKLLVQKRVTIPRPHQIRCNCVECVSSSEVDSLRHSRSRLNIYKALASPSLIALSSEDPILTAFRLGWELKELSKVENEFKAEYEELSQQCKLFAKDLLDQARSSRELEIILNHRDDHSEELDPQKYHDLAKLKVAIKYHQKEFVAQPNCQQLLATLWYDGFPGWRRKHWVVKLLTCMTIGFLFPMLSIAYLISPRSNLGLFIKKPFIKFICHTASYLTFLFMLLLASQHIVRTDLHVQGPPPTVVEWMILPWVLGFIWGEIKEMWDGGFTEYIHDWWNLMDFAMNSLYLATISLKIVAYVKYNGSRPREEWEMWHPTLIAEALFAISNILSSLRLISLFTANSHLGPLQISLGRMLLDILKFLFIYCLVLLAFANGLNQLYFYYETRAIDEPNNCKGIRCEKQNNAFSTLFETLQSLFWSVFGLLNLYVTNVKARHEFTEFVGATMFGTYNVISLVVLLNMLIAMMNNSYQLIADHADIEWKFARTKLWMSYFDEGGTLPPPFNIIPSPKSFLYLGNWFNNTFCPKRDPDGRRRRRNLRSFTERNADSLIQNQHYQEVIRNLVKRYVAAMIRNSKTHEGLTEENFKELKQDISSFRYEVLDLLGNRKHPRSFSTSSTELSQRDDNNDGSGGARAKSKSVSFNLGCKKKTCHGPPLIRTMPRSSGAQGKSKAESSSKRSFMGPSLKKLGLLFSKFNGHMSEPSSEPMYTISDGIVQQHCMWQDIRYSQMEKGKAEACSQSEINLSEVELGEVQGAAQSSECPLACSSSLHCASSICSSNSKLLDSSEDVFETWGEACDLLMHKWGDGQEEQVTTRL
Briefly: Agonist activity at human TRPC5 stably expressed in T-REx-293 cells assessed as increase in calcium flux by Fura-2AM dye based fluorescence plate reader assay. The data set is classed as cell-based.

Data set [5] has as its target T1, Short transient receptor potential channel 4 (Homo sapiens). Briefly: Agonist activity at human TRPC4 stably expressed in T-REx-293 cells assessed as increase in calcium flux at 10 uM by Fura-2AM dye based fluorescence plate reader assay. The settings on record: filed as agonist. The data set is classed as cell-based.
The target of data set [6] is T3, Short transient receptor potential channel 5 (Homo sapiens) (UniProt Q9UL62).
T3 sequence (whole entry): T2 sequence (Q9UL62 whole entry)
Briefly: Agonist activity at human TRPC5 stably expressed in T-REx-293 cells assessed as increase in calcium flux at 10 uM by Fura-2AM dye based fluorescence plate reader assay. The data set is classed as cell-based. The note with it: filed as agonist.

As usually defined, the GI50 is the concentration at which growth is held to half of that of the control. For the compound `CC(C)[C@@]12C[C@@H](OC(=O)/C=C/c3ccccc3)[C@@](C)(O1)[C@@H]1CC[C@@H](C)[C@H]1[C@@H]2OC(=O)/C=C/c1ccccc1`, the concentration for 50% growth inhibition (GI50) in the data set on RXF 393, in the data set on UO-31 and with A498 was more than 100000 nM in each case.

In general, MTD refers to the largest dose that counted as tolerated. Take `CC(C)[C@@]12C[C@@H](OC(=O)COC(=O)/C=C/c3ccccc3)[C@@](C)(O1)[C@@H]1CC[C@@H](C)[C@H]1[C@@H]2OC(=O)/C=C/c1ccccc1`: the GI50 with RXF 393 was determined as 138 nM; in the data set with UO-31, 66 nM; in the data set with A498 it was 44 nM. In [1], this compound gave a Cp of 38.7 ng/mL. The MTD at 24 h in data set [2] was determined as 1 mg/kg.

With `CC(C)[C@@]12C[C@@H](OC(=O)COC(=O)c3ccccc3)[C@@](C)(O1)[C@@H]1CC[C@@H](C)[C@H]1[C@@H]2OC(=O)/C=C/c1ccccc1`, the figures for the GI50 with RXF 393, in the data set with UO-31 and in the data set on A498 were 282 nM, 115 nM and 155 nM, respectively. For the same compound, the maximum tolerated dose (MTD) at 24 h in data set [2] was 0.4 mg/kg.

What is called EC50 is the midpoint of the concentration-response curve. Consider `CC(C)=CC(=O)OCC(=O)O[C@@H]1C[C@]2(C(C)C)O[C@@]1(C)[C@@H]1CC[C@@H](C)[C@H]1[C@@H]2OC(=O)/C=C/c1ccccc1`, for which the figures for the GI50 with RXF 393, with UO-31 and in the data set on A498 were 380 nM, 240 nM and 178 nM, respectively. The compound further yielded a Cp in data set [1] of 1.5 ng/mL. For the same compound, the Activity in [3] turned out to be 15%. Also, the MTD at 24 h in data set [2] was found to be 0.4 mg/kg. For the same compound, in data set [4], the EC50 worked out at 1250 nM.

With `CC(C)[C@@]12C[C@@H](OC(=O)[C@@H]3CO3)[C@@](C)(O1)[C@@H]1CC[C@@H](C)[C@H]1[C@@H]2OC(=O)/C=C/c1ccccc1`, the GI50 amounted to 7900 nM in the data set on RXF 393, 1780 nM in the data set with UO-31 and 2040 nM in the data set with A498.

For the compound `CC(=O)OCC(=O)O[C@@H]1C[C@]2(C(C)C)O[C@@]1(C)[C@@H]1CC[C@@H](C)[C@H]1[C@@H]2OC(=O)/C=C/c1ccccc1`, the GI50 in the data set on RXF 393 amounted to 209 nM; in the data set on UO-31, 34 nM; in the data set with A498, 40 nM. The MTD at 24 h in [2] was found to be 0.2 mg/kg. The EC50 in data set [4] came out at 480 nM. In addition, the outcome in [5] was Active.

In the case of `CC(C)[C@@]12C[C@@H](OS(C)(=O)=O)[C@@](C)(O1)[C@@H]1CC[C@@H](C)[C@H]1[C@@H]2OC(=O)/C=C/c1ccccc1`, the figures for the GI50 in the data set with RXF 393, with UO-31 and with A498 were 427 nM, 389 nM and 145 nM, respectively.

As for `CC(C)[C@@]12C[C@@H](OC(=O)COS(C)(=O)=O)[C@@](C)(O1)[C@@H]1CC[C@@H](C)[C@H]1[C@@H]2OC(=O)/C=C/c1ccccc1`, the GI50 with RXF 393 is 1100 nM; in the data set on UO-31, 1400 nM; with A498 it was 1300 nM.

In the case of `CCCCCC(=O)OCC(=O)O[C@@H]1C[C@]2(C(C)C)O[C@@]1(C)[C@@H]1CC[C@@H](C)[C@H]1[C@@H]2OC(=O)/C=C/c1ccccc1`, the result in data set [6] was Active. Further, the GI50 was 126 nM in the data set with RXF 393, 41 nM with UO-31 and 52 nM with A498. The MTD at 24 h in data set [2] is 0.4 mg/kg.

Take `CC(C)[C@@]12C[C@@H](OC(=O)[C@H]3CO3)[C@@](C)(O1)[C@@H]1CC[C@@H](C)[C@H]1[C@@H]2OC(=O)/C=C/c1ccccc1`: the GI50 in the data set on RXF 393 came to 170 nM; in the data set on UO-31, 204 nM; with A498, 224 nM.
